From patent US20220381790A1, “SELECTION AND BLOCKADE OF FERTILIZATION COMPETENT MALE AND FEMALE GAMETES” (University of Virginia Patent Foundation, priority 2019, published 2022)
Entries after “also recorded” stand apart in the source; their conditions may differ.

Experiments:
sperm = experiment: Sperm progressive motility; format: cell-based, mouse; settings: for progressive motility of the sperm: 10 μg/ml Annexin V, 50 μg/ml GST or 50 μg/ml GST-BAI1-TSR
Procedure: To evaluate the role of PtdSer exposed on sperm, cumulus oocyte complexes (n=30-60) were inseminated with 2-4×10^4 sperm capacitated for 60-90 min in TYH+BSA (in most of the experiments) or in TYH+MBCD^67 (in the experiment to test the effect of Annexin V in fertilization, FIG. 1K). During the last 30 min of capacitation, sperm were incubated with 10 μg/ml Annexin V (Ebiosciences), 50 μg/ml GST or 50 μg/ml GST-BAI1-TSR. After co-culture of oocytes and sperm in 100 μl drops of high calcium human tubal fluid (HTF) supplemented with 1 mM reduced glutathione (GSH) medium for 4 hours^67, eggs were washed several times and transferred to KSOM medium (EMD Millipore). The percentage of 2-cell embryos (fertilized eggs) was determined at 24 hours post insemination. Sperm motility upon incubation with control medium, Annexin V, GST or GST-BAI1-TSR was graded as progressive motility, non-progressive motility, and immotility, according to the criteria of the 5th Edition of the World Health Organization (WHO) Laboratory Manual for the Examination and Processing of Human Semen. The non-progressive motility and immotility numbers were grouped together. To test the soluble head group of PtdSer, O-Phospho-L-Serine (Sigma) and its control O-Phospho-D-Serine (Sigma) in IVF assays, ˜20 ZP-free oocytes isolated from wt mice were incubated 1×10^3 capacitated sperm in 20-μl droplets for 1 h in the presence of 1 mM O-Phospho-L-Serine or O-Phospho-D-Serine. After washes and an overnight incubation the percentage of 2-cell embryos was evaluated.

PtdSer exposed on sperm = experiment: In vitro fertilization assay, masking PtdSer on sperm; format: cell-based, mouse; settings: 2-cell embryos at 24 h
Procedure: In vitro fertilization (IVF) assays. IVF was performed as previously described^68. Briefly, 4-5 week old female mice were super-ovulated by intraperitoneal injections of 5 IU of pregnant mare serum gonadotropin (PMSG, Prospec) and 5 IU of human chorionic gonadotropin (hCG, Sigma) 48 hours (h) later. Metaphase II oocytes were recovered 13 h after hCG, and were: 1) directly used as cumulus oocyte complexes (COC), 2) freed from cumulus cells by a brief incubation with 3 mg/ml hyaluronidase (Sigma) in 0.01% poly vinyl alcohol (PVA)/FHM medium (EMD Millipore). These oocytes were labeled as Zona pellucida (ZP)-intact oocytes; or 3) freed from cumulus cells and ZP using Tyrode's solution (Sigma) (ZP-free oocytes). Sperm were collected from the cauda epididymides of adult (>10 week-old) wild-type male mice and capacitated for 90 min in TYH+BSA medium (described above, Sperm staining section). […]
To evaluate the role of PtdSer exposed on sperm, cumulus oocyte complexes (n=30-60) were inseminated with 2-4×10^4 sperm capacitated for 60-90 min in TYH+BSA (in most of the experiments) or in TYH+MBCD^67 (in the experiment to test the effect of Annexin V in fertilization, FIG. 1K). […] The percentage of 2-cell embryos (fertilized eggs) was determined at 24 hours post insemination. […] After washes and an overnight incubation the percentage of 2-cell embryos was evaluated.

[1] = test system: ZP-free wild-type oocytes; experiment: Binding of 2 μm carboxylate modified beads to oocytes; format: cell-based, mouse; settings: beads pretreated with 50 μg/ml GST-BAI1-TSR for 30 min; oocytes with >5 bound beads scored
Procedure: The presence of functional PtdSer receptors on mouse ZP-free wild-type oocytes was evaluated by incubation with 2 μm carboxylate modified red (580/605) beads (1:400, Invitrogen, FluoSpheres) for 2 h in TYH+BSA at 37° C., 5% CO2. Beads were pre-treated with medium only, 50 μg/ml GST or 50 μg/ml GST-BAI1-TSR for 30 min. Oocytes were washed 6 times in TYH+BSA, stained with CD9 antibody for 30 min at 37° C., 5% CO2 in TYH+BSA, fixed in 4% PFA+1% BSA and stained with Hoechst. The percentage of oocytes with bound beads was determined by microscopy. We scored oocytes with >5 bound beads, since accurately counting individual beads, particularly in oocytes of the control groups that bound multiple beads was unfeasible.

C2C12 myoblasts = experiment: Sperm:myoblast fusion assay; format: cell-based, mouse; settings: 4 h co-culture; for sperm:myoblast fusion (Calcein-AM+ myoblasts): Calcein-AM labeled sperm, 50 μg/ml GST-BAI1-TSR on sperm, 80 μM EHT-1864, 5 μg/ml Cytochalasin D, 4% PFA; for DiI+ myoblasts (transfer of the dye DiI from the sperm to the myoblasts): DiI-labeled sperm
Procedure: To stain sperm with the dyes Calcein-AM or DiI, caudal sperm were allowed to swim in TYH+0.75 mM Methyl-beta-cyclodextrin (MBCD)^67 for 15 min, counted and stained with 4 μM Calcein red orange-AM (Invitrogen) for 30 min in PBS at room temperature or with 5 μg/ml DiI (Invitrogen) for 30 min at 37° C. in HBSS, as previously described^60. Cells were washed, counted and resuspended in DMEM medium supplemented with 20% heat inactivated FBS.
Sperm:myoblast fusion experiments. C2C12 murine skeletal muscle myoblasts (ATCC) were maintained at sub-confluent densities in DMEM medium supplemented with 20% heat inactivated FBS at 37° C., 8.5% CO2. Cells were trypsinized, counted and plated in 4-well LabTek II Permanox chamber slides (25,000 cells/well). After 24 h, myoblasts were treated with appropriate buffer alone, or 5 μg/ml Cytochalasin D (Sigma), 80 μM RAC1 inhibitor (EHT-1864), or incubated with Abs (BAI3 [R&D Systems, MAB39651] or CD9 [BD Biosciences]) for 30 min at 37° C., 8.5% CO2 prior to the sperm co-incubation. Alternatively, myoblasts were fixed with 4% PFA for 20 min and washed several times. Calcein-AM+ sperm (250,000 sperm/well) were added and incubated for 4 h at 37° C., 8.5% CO2. The blocking agents were also present during the co-incubation except for Cytochalasin D, which was used only during the preincubation to avoid affecting the sperm. Sperm were pretreated with 50 μg/ml GST or 50 μg/ml GST-BAI1-TSR for 30 min and then added to the myoblasts. C2C12 myoblasts with shRNA-mediated Elmo2 knockdown have been described previously^25. After the 4 h co-incubation, myoblasts were washed, stained with Hoechst and mounted. Cells were analyzed the same day and 6-8 fields/well were photographed using the Axio Imager 2 with Apotome (Zeiss). Image J cell counter plugin software was used to quantitate nuclei number. The fusion index was calculated as the percentage of Calcein AM^+ myoblasts in the experimental group normalized to the control untreated cells.

ZP-free oocytes = experiment: In vitro fertilization assay, competition with soluble head group of PtdSer; format: cell-based, mouse; settings: 1 mM, ZP-free oocytes with capacitated sperm for 1 h, 2-cell embryos after overnight incubation
Procedure: In vitro fertilization (IVF) assays. IVF was performed as previously described^68. Briefly, 4-5 week old female mice were super-ovulated by intraperitoneal injections of 5 IU of pregnant mare serum gonadotropin (PMSG, Prospec) and 5 IU of human chorionic gonadotropin (hCG, Sigma) 48 hours (h) later. Metaphase II oocytes were recovered 13 h after hCG, and were: 1) directly used as cumulus oocyte complexes (COC), 2) freed from cumulus cells by a brief incubation with 3 mg/ml hyaluronidase (Sigma) in 0.01% poly vinyl alcohol (PVA)/FHM medium (EMD Millipore). These oocytes were labeled as Zona pellucida (ZP)-intact oocytes; or 3) freed from cumulus cells and ZP using Tyrode's solution (Sigma) (ZP-free oocytes). Sperm were collected from the cauda epididymides of adult (>10 week-old) wild-type male mice and capacitated for 90 min in TYH+BSA medium (described above, Sperm staining section). All the incubations were performed in medium drops under paraffin oil (Sigma) at 37° C., 5% CO2 atmosphere. To evaluate the role of PtdSer exposed on sperm, cumulus oocyte complexes (n=30-60) were inseminated with 2-4×10^4 sperm capacitated for 60-90 min in TYH+BSA (in most of the experiments) or in TYH+MBCD^67 (in the experiment to test the effect of Annexin V in fertilization, FIG. 1K). During the last 30 min of capacitation, sperm were incubated with 10 μg/ml Annexin V (Ebiosciences), 50 μg/ml GST or 50 μg/ml GST-BAI1-TSR. After co-culture of oocytes and sperm in 100 μl drops of high calcium human tubal fluid (HTF) supplemented with 1 mM reduced glutathione (GSH) medium for 4 hours^67, eggs were washed several times and transferred to KSOM medium (EMD Millipore). The percentage of 2-cell embryos (fertilized eggs) was determined at 24 hours post insemination. […] After washes and an overnight incubation the percentage of 2-cell embryos was evaluated.

[2] = annexin V for PS; cited from earlier work
RAC1 in ZP-free oocytes = experiment: Sperm DNA decondensation assay with RAC1 inhibitor; format: cell-based, mouse; settings: 80 μM, oocytes preincubated 1-2 h, inhibitor present during 1 h insemination
Procedure: To evaluate the role of RAC1, ZP-free oocytes were prepared as described above, loaded with 10 μg/ml DAPI (BioRad) for 20 min at 37° C., 5% CO2, and washed several times in TYH+BSA 3. Twenty oocytes, either untreated or previously incubated with RAC1 inhibitor (80 μM, EHT-1864, Sigma) for 1-2 h were inseminated with 1000 capacitated sperm for 1 h in 20 μl drops of TYH+BSA medium at 37° C., 5% CO2. RAC1 inhibitor was also present the fertilization steps. After 3 washes, oocytes were fixed in 0.25% glutaraldehyde and 0.1% paraformaldehyde for 20 min at room temperature, washed and mounted. The percentage of oocytes with DAPI^+ decondensed sperm nuclei (typically 1-2/oocyte) was evaluated by microscopy.

BAI1-TSR: soluble extracellular fragment of the PtdSer recognition receptor BAI1 (residues 202-585) fused to glutathione-S-transferase; SEQ ID NOs: 1 and 2
progressive motility of the sperm (sperm): not affected | progressive motility of the sperm (sperm; listed as GST-BAI1-TSR): No significant differences | effect on fertilization (2-cell embryos) (PtdSer exposed on sperm; sperm incubated with 50 μg/ml GST-BAI1-TSR): significantly reduced fertilization | binding of carboxylate modified beads to oocytes [1]: significantly decreased | sperm:myoblast fusion (Calcein-AM+ myoblasts) (C2C12 myoblasts): significantly decreased the fusion

N[C@@H](COP(=O)(O)O)C(=O)O [Phospho-L-Serine, O-Phospho-L-Serine]
effect on fertilization (2-cell embryos) (ZP-free oocytes): significant reduction in fertilization | inhibition at 1000 µM (ZP-free oocytes; Mus musculus, Oocyte, read-out: partial inhibition of fertilization): 30 to 40%

GST: glutathione-S-transferase control protein, SEQ ID NO: 1 [reference compound]
progressive motility of the sperm (sperm): No significant differences

C=C1[C@@H](C)[C@H]2[C@H](Cc3ccccc3)NC(=O)[C@]23[C@H](OC(C)=O)/C=C/[C@@](C)(O)C(=O)[C@@H](C)C/C=C/[C@H]3[C@@H]1O [cytochalasin D, reference compound]
sperm:myoblast fusion (Calcein-AM+ myoblasts) (C2C12 myoblasts): abrogated

Annexin V: PtdSer-binding protein reagent (Ebiosciences) used to mask PtdSer on sperm; highest affinity of the three blocking agents
progressive motility of the sperm (sperm): not affected; also recorded: No significant differences | reduction in fertilization (PtdSer exposed on sperm; 10 μg/ml Annexin V on capacitated caudal sperm, in three out of four independent experiments): > 85% | Kd [2]: 6.6 nM

paraformaldehyde
sperm:myoblast fusion (Calcein-AM+ myoblasts) (C2C12 myoblasts): abrogated | DiI+ myoblasts (transfer of the dye DiI from the sperm to the myoblasts) (C2C12 myoblasts): blocked

N[C@H](COP(=O)(O)O)C(=O)O [Phospho-D-Serine, O-Phospho-D-Serine]
effect on fertilization (2-cell embryos) (ZP-free oocytes): did not inhibit fertilization

O=c1cc(CN2CCOCC2)occ1OCCCCCSc1ccnc2cc(C(F)(F)F)ccc12 [EHT-1864, reference compound]
sperm motility (sperm; sperm incubated with EHT-1864 alone under the assay conditions): no reduction in the motility | number of oocytes with decondensed sperm DNA (RAC1 in ZP-free oocytes): significant reduction | sperm:myoblast fusion (Calcein-AM+ myoblasts) (C2C12 myoblasts): potently blocked | DiI+ myoblasts (transfer of the dye DiI from the sperm to the myoblasts) (C2C12 myoblasts): blocked
